Assay results reported in the supplement of paper PMC10307832.

What was measured:
Test in all cases: relative viability (nuclei count vs DMSO), 5 days (fraction); higher = more cells survive
TPCA-1 + Vorinostat = compound: C1=CC(=CC=C1C2=CC(=C(S2)NC(=O)N)C(=O)N)F [TPCA-1] + O=C(CCCCCCC(=O)Nc1ccccc1)NO [Vorinostat] (partner 1 µM)
How it was run: (§1)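 After 5 days of treatment, lung cancer cells in 1536-well plates were fixed and stained in a single step (final 0.05% Triton X-100, 1% formaldehyde, 1 ug/ml Hoechst) and their nuclei counted on 4× images. Treatment had been applied by pin tool the day after seeding as one drug alone or as a fixed anchor-drug dose with five library-drug doses (not always all listed) in √10 steps. Relative viability is the nuclei count of treated wells divided by that of vehicle wells, and values are medians of duplicate plates.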

[1] = compound: C[C@]12O[C@H](C[C@]1(O)CO)n1c3ccccc3c3c4c(c5c6ccccc6n2c5c31)CNC4=O [Lestaurtinib] + C[C@]1(O)C[C@@H](c2nc(-c3ccc4ccc(-c5ccccc5)nc4c3)c3c(N)nccn32)C1 [Linsitinib] (partner 1 µM)
How it was run: as §1

TPCA-1 + Linsitinib = compound: C1=CC(=CC=C1C2=CC(=C(S2)NC(=O)N)C(=O)N)F [TPCA-1] + C[C@]1(O)C[C@@H](c2nc(-c3ccc4ccc(-c5ccccc5)nc4c3)c3c(N)nccn32)C1 [Linsitinib] (partner 1 µM)
How it was run: as §1

TPCA-1 + Palbociclib = compound: C1=CC(=CC=C1C2=CC(=C(S2)NC(=O)N)C(=O)N)F [TPCA-1] + CC(=O)c1c(C)c2cnc(Nc3ccc(N4CCNCC4)cn3)nc2n(C2CCCC2)c1=O [Palbociclib] (partner 0.5 µM)
How it was run: as §1

Cell Line | relative viability (TPCA-1 + Vorinostat; first compound 0.04 µM) | relative viability (TPCA-1 + Vorinostat; first compound 0.1265 µM) | relative viability (TPCA-1 + Vorinostat; first compound 0.4 µM) | relative viability (TPCA-1 + Vorinostat; first compound 1.265 µM) | relative viability (TPCA-1 + Vorinostat; first compound 4 µM) | relative viability ([1]; first compound 0.005 µM) | relative viability ([1]; first compound 0.01581 µM) | relative viability ([1]; first compound 0.05 µM) | relative viability ([1]; first compound 0.1581 µM) | relative viability ([1]; first compound 0.5 µM) | relative viability (TPCA-1 + Linsitinib; first compound 0.04 µM) | relative viability (TPCA-1 + Linsitinib; first compound 0.1265 µM) | relative viability (TPCA-1 + Linsitinib; first compound 0.4 µM) | relative viability (TPCA-1 + Linsitinib; first compound 1.265 µM) | relative viability (TPCA-1 + Linsitinib; first compound 4 µM) | relative viability (TPCA-1 + Palbociclib; first compound 0.04 µM) | relative viability (TPCA-1 + Palbociclib; first compound 0.1265 µM) | relative viability (TPCA-1 + Palbociclib; first compound 0.4 µM) | relative viability (TPCA-1 + Palbociclib; first compound 1.265 µM) | relative viability (TPCA-1 + Palbociclib; first compound 4 µM)
NCI-H23 | 0.392 | 0.579 | 0.546 | 0.526 | 0.161 | 0.509 | 0.604 | 0.387 | 0.463 | 0.233 | 0.537 | 0.559 | 0.759 | 0.602 | 0.549 | 0.539 | 0.527 | 0.51 | 0.431 | 0.435
NCI-H1437 | 0.921 | 0.867 | 0.897 | 0.819 | 0.784 | 1.02 | 1.24 | 0.739 | 0.775 | 0.302 | 1.17 | 0.936 | 1.02 | 0.926 | 0.754 | 0.302 | 0.288 | 0.3 | 0.35 | 0.3
SK-MES-1 | 1.14 | 1.01 | 0.966 | 1.02 | 0.438 | 1.04 | 1.06 | 0.501 | 0.485 | 0.317 | 1.17 | 0.985 | 1.01 | 0.859 | 0.634 | 0.346 | 0.333 | 0.325 | 0.319 | 0.327
NCI-H2405 | 1.12 | 0.983 | 1.15 | 0.975 | 0.103 | 0.934 | 0.703 | 0.674 | 0.612 | 0.241 | 1.05 | 0.806 | 0.988 | – | 0.914 | 0.565 | 0.507 | 0.525 | 0.446 | 0.478
NCI-H2023 | 0.634 | 0.608 | 0.772 | 0.506 | 0.241 | 0.653 | 0.709 | 0.547 | 0.369 | 0.208 | 0.706 | 0.721 | 0.765 | 0.559 | 0.409 | 0.366 | 0.394 | 0.444 | 0.37 | 0.165
NCI-H838 | 0.752 | 0.64 | 0.676 | 0.648 | 0.363 | 1.04 | 1.01 | 0.759 | 0.507 | 0.146 | 1.06 | 0.868 | 0.962 | 0.886 | 0.811 | 0.225 | 0.193 | 0.222 | 0.194 | 0.199
NCI-H661 | 0.739 | 0.759 | 0.806 | 0.754 | 0.483 | 0.543 | 0.609 | 0.556 | 0.474 | 0.262 | 0.524 | 0.487 | 0.706 | 0.534 | 0.411 | 0.413 | 0.397 | 0.411 | 0.399 | 0.378
NCI-H1734 | 0.957 | 0.737 | 0.88 | 0.839 | 0.279 | 0.95 | 0.849 | 0.477 | 0.545 | 0.342 | 0.992 | 0.729 | 0.878 | 0.829 | 0.89 | 0.352 | 0.313 | 0.388 | 0.363 | 0.307
NCI-H1944 | 0.648 | 0.709 | 0.675 | 0.512 | 0.521 | 1.14 | 1.14 | 0.717 | 0.555 | 0.634 | 1.24 | 1.13 | 1.2 | 1.13 | 0.987 | 0.354 | 0.336 | 0.293 | 0.319 | 0.225
LK-2 | 0.343 | 0.161 | 0.287 | 0.267 | 0.237 | 0.456 | 0.847 | 0.403 | 0.394 | 0.176 | 0.349 | 0.332 | 0.507 | 0.52 | 0.196 | 0.726 | – | 0.725 | 0.697 | 0.427
HCC-15 | 0.914 | 0.758 | 0.84 | 0.782 | 0.806 | 0.98 | 0.958 | 0.71 | 0.529 | 0.159 | 0.951 | 0.886 | 0.82 | 0.895 | 0.802 | 0.835 | 0.698 | 0.801 | 0.694 | 0.472
NCI-H727 | 1.21 | 0.947 | 1.26 | 1.25 | 1.31 | 0.306 | 0.255 | 0.28 | 0.285 | 0.18 | 0.203 | 0.318 | 0.342 | 0.223 | 0.244 | 0.761 | 0.47 | 0.594 | 0.62 | 0.593
HOP-62 | 0.771 | 0.52 | 0.688 | 0.381 | 0.176 | 0.838 | 0.994 | 0.995 | 1.05 | 0.891 | 0.96 | 0.676 | 0.921 | 1.12 | 0.973 | 0.483 | 0.458 | 0.497 | 0.418 | 0.466
NCI-H3122 | 1.34 | 0.814 | 0.955 | 1 | 0.897 | 1.11 | 1.09 | 1.01 | 1.08 | 0.527 | 1.11 | 0.983 | 0.981 | 0.985 | 1.02 | 0.189 | 0.166 | 0.185 | 0.22 | 0.181
NCI-H1395 | 0.637 | 0.645 | 0.856 | 0.604 | 0.55 | 1.07 | 1.2 | 0.836 | 0.894 | 0.421 | 1.55 | 0.954 | 1.07 | 0.959 | 0.884 | 0.644 | 0.596 | 0.639 | 0.635 | 0.512
NCI-H647 | 0.48 | 0.599 | 0.518 | 0.312 | 0.218 | 1.08 | 0.818 | 0.828 | 0.265 | 0.311 | 1.11 | 1.07 | 1.1 | 1.05 | 0.694 | 0.47 | 0.4 | 0.342 | 0.38 | 0.188
